From patent publication US11107993B2, “Organic compound and organic electroluminescent element comprising same” (MATERIAL SCIENCE CO., LTD., priority 2015, dated 2021)

Experiment: Evaluation of solubility of organic compound in hexane, toluene and dichloromethane
Type: physicochemical
Conditions: room temperature; for solubility compared with Compound 9: summary of Table 3, toluene, dichloromethane
Description: Evaluation of Solubility of Organic Compound
The solubility in hexane, toluene and dichloromethane was measured for the compounds of Synthesis Example 9, and Comparative Synthesis Examples 2 and 3.

Row | Structure (SMILES) | solubility in hexane | solubility compared with Compound 9
1 | CCc1cc(N(c2cc(C)ccc2C)c2cc(C(C)(C)C)ccc2C)c2ccc3c(CC)cc(N(c4cc(C)ccc4C)c4cc(C(C)(C)C)ccc4C)c4ccc1c2c34 [Compound 1-C] | Insoluble | significantly lower solubility than Compound 9
2 | Cc1ccc(C)c(N(c2cc(C(C)(C)C)ccc2C)c2ccc3ccc4c(N(c5cc(C)ccc5C)c5cc(C(C)(C)C)ccc5C)ccc5ccc2c3c54)c1 [Compound 1-B] | Insoluble | significantly lower solubility than Compound 9
